Key:
[1] = tested on: inner ear cells derived from iPS cells of patients with Pendred syndrome; assay: Apoptosis under epoxomicin cellular stress (Cleaved caspase 3 staining of pendrin-positive cells); format: cell-based, human
Protocol: Pendrin-positive cells were induced from iPS cells derived from patients and iPS/ES cells derived from healthy subjects using the above method. The differentiation-induced cells were subjected to the following treatment. In the rapamycin administration group, rapamycin was administered for 3 days. In the cellular stress/rapamycin group, rapamycin (0.2 nM) was administered for 2 days and then epoxomicin (0.5 μM) was administered as cellular stress for 24 hours along with rapamycin. In the cellular stress group, DMSO was administered for 2 days and then only epoxomicin (0.5 μM) was administered as cellular stress for 24 hours. For fluorescent antibody staining, goat anti-pendrin antibody and rabbit anti-Cleaved Caspase 3 antibody were added (1:100 and 1:300, respectively) to the fixed cells on glass slides after antigen retrieval. Cell nuclei were then stained with Hoechst 33258 (diluted 1:1000). […] Pendrin-positive cells were induced from iPS cells derived from patients and iPS/ES cells derived from healthy subjects using the above method. The differentiation-induced cells were subjected to the following. In the rapamycin administration group, rapamycin was administered for 3 days. In the cellular stress/rapamycin group, rapamycin (0.2 nM) was administered for 2 days and then epoxomicin (0.5 μM) was administered as cellular stress for 24 hours along with rapamycin. In the cellular stress group, DMSO was administered for 2 days and then only epoxomicin (0.5 μM) was administered as cellular stress for 24 hours. […] For fluorescent antibody staining, goat anti-pendrin antibody and rabbit anti-Cleaved Caspase 3 antibody were added (1:100 and 1:300, respectively) to the fixed cells on glass slides after antigen retrieval. Cell nuclei were then stained with Hoechst 33258 (diluted 1:1000). […] Pendrin-positive cells were induced from iPS cells derived from patients and iPS/ES cells derived from healthy subjects using the above method. The differentiation-induced cells were subjected to the following treatment. In the calpeptin administration group, calpeptin was administered for 3 days. […]

[2] = tested on: neurons; conditions: stated as known; cited from earlier work
[3] = tested on: inner ear cells derived from iPS cells of patients with Pendred syndrome; assay: Measurement of cell viability under epoxomicin cellular stress (count of cells positive for pendrin but negative for Cleaved caspase 3); format: cell-based, human
Protocol: Pendrin-positive cells were induced from iPS cells derived from patients and iPS/ES cells derived from healthy subjects using the above method. The differentiation-induced cells were subjected to the following treatment. In the rapamycin administration group, rapamycin was administered for 3 days. In the cellular stress/rapamycin group, rapamycin (0.2 nM) was administered for 2 days and then epoxomicin (0.5 μM) was administered as cellular stress for 24 hours along with rapamycin. In the cellular stress group, DMSO was administered for 2 days and then only epoxomicin (0.5 μM) was administered as cellular stress for 24 hours. For fluorescent antibody staining, goat anti-pendrin antibody and rabbit anti-Cleaved Caspase 3 antibody were added (1:100 and 1:300, respectively) to the fixed cells on glass slides after antigen retrieval. Cell nuclei were then stained with Hoechst 33258 (diluted 1:1000). […] Pendrin-positive cells were induced from iPS cells derived from patients and iPS/ES cells derived from healthy subjects using the above method. The differentiation-induced cells were subjected to the following treatment. In the rapamycin administration group, rapamycin was administered for 3 days. In the cellular stress/rapamycin group, rapamycin (0.2 nM) was administered for 2 days and then epoxomicin (0.5 μM) was administered as cellular stress for 24 hours along with rapamycin. […]

[4] = tested on: differentiation-induced inner ear sensory epithelial cells; assay: Administration of gentamicin to differentiation-induced inner ear sensory epithelial cells (cytotoxicity, number of cells); format: cell-based, human; conditions: gentamicin injection diluted 80 times, administered for 10 days; FIG. 7
Protocol: (1-5) Administration of Gentamicin Known to Have Inner Ear Toxicity to Differentiation-Induced Inner Ear Sensory Epithelial Cells
A gentamicin injection diluted 80 times was administered for 10 days to the inner ear sensory epithelial cells whose differentiation had been induced using this method.

CCCC[C@@H](C=O)NC(=O)[C@H](CC(C)C)NC(=O)OCc1ccccc1 [Calpeptin]
apoptosis when cells are stressed ([1]; calpeptin 0.5 nM for 2 days, then epoxomicin 0.5 μM for 24 hours along with calpeptin, FIG. 14, reference example): cannot inhibit apoptosis
apoptosis of neurons in neurodegenerative diseases and the like [2]: known to inhibit apoptosis of neurons

CN(C)C(=N)NC(=N)N [metformin]
decrease in the cell viability when cells are stressed ([3]; 1 mM or 10 mM metformin for 2 days, then epoxomicin 0.5 μM for 24 hours along with metformin, FIG. 12): suppresses the decrease in the cell viability
apoptosis when cells are stressed ([1]; 1 mM or 10 mM metformin for 2 days, then epoxomicin 0.5 μM for 24 hours along with metformin, FIG. 13): inhibits apoptosis

CO[C@H]1C[C@@H]2CC[C@@H](C)[C@@](O)(O2)C(=O)C(=O)N2CCCC[C@H]2C(=O)O[C@H]([C@H](C)C[C@@H]2CC[C@@H](O)[C@H](OC)C2)CC(=O)[C@H](C)/C=C(\C)[C@@H](O)[C@@H](OC)C(=O)[C@H](C)C[C@H](C)/C=C/C=C/C=C/1C [rapamycin]
decrease in cell viabilities when cells are stressed ([3]; rapamycin 0.2 nM for 2 days, then epoxomicin 0.5 μM for 24 hours along with rapamycin, FIG. 10): suppresses decrease in cell viabilities
apoptosis when cells are stressed (cells positive for pendrin and Cleaved caspase 3) ([1]; rapamycin 0.2 nM for 2 days, then epoxomicin 0.5 μM for 24 hours along with rapamycin, FIG. 11): inhibits such apoptosis

gentamicin
number of cells as compared with a control group (cytotoxicity) [4]: significantly decreased
